Molecular target: 5-hydroxytryptamine receptor 6 (Homo sapiens, UniProt P50406)
Assay: Displacement of [3H]LSD from human 5HT6 receptor expressed in HEK293 cells
Type: cell-based

Chain of 5-hydroxytryptamine receptor 6 (P50406 whole entry): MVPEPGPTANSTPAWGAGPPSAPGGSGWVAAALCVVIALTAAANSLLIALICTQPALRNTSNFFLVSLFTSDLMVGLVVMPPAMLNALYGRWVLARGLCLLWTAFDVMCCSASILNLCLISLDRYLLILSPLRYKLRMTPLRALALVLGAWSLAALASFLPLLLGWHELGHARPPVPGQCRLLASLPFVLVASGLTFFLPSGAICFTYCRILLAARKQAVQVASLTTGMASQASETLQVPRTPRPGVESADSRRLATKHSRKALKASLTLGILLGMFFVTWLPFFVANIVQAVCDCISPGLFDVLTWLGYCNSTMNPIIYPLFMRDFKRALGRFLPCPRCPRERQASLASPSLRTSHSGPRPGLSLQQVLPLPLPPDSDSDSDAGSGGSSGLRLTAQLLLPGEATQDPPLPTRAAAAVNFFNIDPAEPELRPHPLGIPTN

Compound | Ki
COc1ccc2c(CCN(C)C)cn(S(=O)(=O)c3ccccc3)c2c1 | 15 nM
COc1cccc2c1c(CCN(C)C)cn2S(=O)(=O)c1ccccc1 | 11 nM
CCN(CC)CCc1c[nH]c2ccccc12 | 575 nM
CN(C)CCc1cn2c3c(cccc13)-c1ccccc1S2(=O)=O | 4500 nM
CCN(CC)CCc1cn(S(=O)(=O)c2ccccc2)c2ccccc12 | 14 nM
COc1ccc2[nH]cc(CCN(C)Cc3ccccc3)c2c1 | 106 nM
CN(C)CCc1c2n(c3ccccc13)S(=O)(=O)c1ccccc1-2 | 143 nM

Source: ChEMBL document CHEMBL1139712, “Interaction of N1-unsubstituted and N1-benzenesulfonyltryptamines at h5-HT6 receptors” (Bioorg Med Chem Lett, 2006)
